Experimental data as given in a melting point compilation (Tetko et al.; mined from patent text by program, amines drawn as free bases though some values may be those of a salt).

Row | Compound | melting point
1 | C/C(Br)=C(\Br)c1cn(-c2c(Cl)cc(C(F)(F)F)cc2Cl)nc1C#N | 134 to 135 °C
2 | COC(=O)c1cccc2c3nc4ccccc4[nH]c-3nc12 | 251 to 255 °C
3 | FC(F)(F)c1ccccc1P(=S)(S)c1ccccc1C(F)(F)F | 93 to 94 °C
4 | N#CC=C1CCN(c2ccc(N3C[C@@H](Cn4cc(CCC(=O)O)nn4)OC3=O)cc2)CC1 | 120 to 122 °C
5 | CC1=C(C(=O)OCCN(C)Cc2ccccc2)C(c2cccc([N+](=O)[O-])c2)C(P2(=O)OCCCO2)=C(C)N1 (configuration not stated) | 139 to 140 °C
6 | COc1ccccc1N1CCN([C@H]2Cc3c(OC)ccc(OC)c3C[C@H]2O)CC1 (relative stereo) | 213 to 216 °C
7 | N#Cc1cnc2c(c1Nc1ccc(Oc3ccccc3)cc1)C=C1N=CN=C1C2 | > 270 °C
8 | COc1cccc(CN2CCN(C)CC2C2=NCCN2)c1 (configuration not stated) | 78 to 80 °C
9 | O=[N+]([O-])C(CSc1cccc(Cl)c1)=C1NCCN1Cc1ccc(Cl)nc1 | 143 °C
10 | Cc1c(C)c2c(c(C)c1N)CC(C)(CN1CCC(OCCCc3ccccc3)CC1)O2 (configuration not stated) | 53 to 54 °C
11 | CC(C)CC(NC(=O)C(Cc1c[nH]cn1)NC(=O)C(CC(=O)c1ccccc1)Cc1cccc2ccccc12)C(O)C(=O)OC(C)C (configuration not stated) | 108 to 118 °C
12 | CC(C)(C)Cc1nc2cc(CC(=O)O)ccc2o1 | 108 to 109 °C
13 | ClC(c1ccccc1)(c1ccccc1)c1ccncc1 | 84.5 to 86.5 °C
14 | COC(C)CNc1nccc(-c2ccnc(Nc3cccc(F)c3)c2)n1 (configuration not stated) | 103 to 105 °C
15 | CCc1nc2c(cnn2CC)c(NC2CCOCC2)c1CNC(=O)c1cccc(C(=O)NCc2ccc(C)c(-c3cccc(CN4CCCNCC4)c3)c2)c1 | 118 to 120 °C
16 | COc1cc(OC)nc(NC(=O)NS(=O)(=O)Nn2cccc2C(=O)N(C)C)n1 | 150 to 152 °C
17 | CN1CCC2(CC=C(c3cc4ccccc4s3)CC2)CC1 | 89.7 to 91.2 °C
18 | Nc1ncc(-c2ccc3c(c2)CCC(N2CCOCC2)CC3)c(N)n1 (configuration not stated) | 118 °C
19 | O=C(CCl)Nc1nc(-c2ccccc2)cs1 | 179 to 181 °C
20 | CS(=O)(=O)OCC1CCN(C(=O)OCc2ccccc2)CC1 | 72 to 74 °C

Row | Compound | melting point
21 | COC(=O)[C@@H]1CCCCOc2ccc(cc2)C[C@H](NC(=O)OC(C)(C)C)C(=O)N[C@@H](C(C)C)C(=O)N1 | 225 to 228 °C
22 | CCCCCCCc1ccc(-c2ccc(N)cc2)cc1 | 79 °C
23 | CNc1nc(NC(=O)NS(=O)(=O)c2ccccc2Cl)nc(OC)n1 | 224 to 228 °C
24 | CCOC(=O)COC(CC)c1ccc(-c2ccc(Cl)cc2)cc1 (configuration not stated) | 170 to 172 °C
25 | CCOc1ccc(CCC=[N+]([O-])C(C)(C)C)cc1 | 54 to 57 °C
26 | CCOc1cncc(N2CCN3CCCC3C2)n1 (configuration not stated) | 101 to 102 °C
27 | CCCC(=O)c1ccccc1NC(C)=O | 46.5 to 47 °C
28 | CC(C)NCC(O)COc1cccc2nsnc12 (configuration not stated) | 100 to 102 °C
29 | O=C1CC=C(c2c[nH]c3ccc([N+](=O)[O-])cc23)CC1 | 210 to 212 °C
30 | COC(=O)C1C(c2ccc(I)cc2)CC2CCC1N2C (configuration not stated) | 101 to 102 °C
31 | CCCn1c(=S)sc2c(=N)n(NC(=O)c3ccco3)cnc21 | 206 °C
32 | CCOc1cc2ncc(C#N)c(Nc3ccc4cc[nH]c4c3)c2cc1OCC | 128 to 130 °C
33 | CCOC(=O)COc1ccc(C(=O)c2ccn[nH]2)c(Cl)c1Cl | 147 to 149 °C
34 | CC1(C)CCc2ccccc2C1n1cncc1C1SCCS1 (configuration not stated) | 109 °C
35 | CCCCNC(=O)/C(=C/C=C/c1cc2ccccc2[nH]1)OC | 185 to 186 °C
36 | CC1=C2OCOC2CC(C)(C)C1(O)C[Si](C)(C)C (configuration not stated) | 63 to 64.5 °C
37 | CNCCCc1nc2ccccc2[nH]1 | 134 to 136 °C
38 | COC(=O)CC1CC(CCc2c(-c3ccc(F)cc3)c(-c3ccccc3)c(C(=O)Nc3ccc(C(=O)OC)cn3)n2C(C)C)OC(C)(C)O1 (configuration not stated) | 77 to 84 °C
39 | COc1ccc(-c2[nH]nc3c2C(=O)c2c(NC(=O)Cc4ccccc4)cccc2-3)cc1 | 280 °C
40 | CC1(C)OCC(N(c2nc(Cl)nc(N(C3COC(C)(C)OC3)C3COC(C)(C)OC3)n2)C2COC(C)(C)OC2)CO1 | 133 to 135 °C

Row | Compound | melting point
41 | CCCCCCCCCCCCCCCCNc1ccc(C(=O)NS(=O)(=O)C(F)(F)F)cc1 | 172 to 174 °C
42 | Cc1noc(NS(=O)(=O)c2ccccc2-c2ccc(-c3ncoc3C)cc2)c1C | 86 to 96 °C
43 | c1ccc(C(OC2CCN(CCCNc3ccc4ncnn4n3)CC2)c2ccccc2)cc1 | 136 to 138 °C
44 | CCOC(=O)C1=C(COCC(N)=S)NC(C)=C(C(=O)OC)C1c1ccccc1Cl (configuration not stated) | 149 to 150 °C
45 | COc1ccc2c(c1)CC=C(C=Cc1ccc(C#N)cc1)O2 | 224 to 226 °C
46 | Nc1ccc(-c2ccccc2)cc1[N+](=O)[O-] | 163 to 165 °C
47 | O=C(NCCO)c1cccc(-c2cccc3nn(Cc4cccc(Cl)c4)cc23)c1 | 202 to 203 °C
48 | CCN(CC)CCN(CCN1CCCCC1)c1ccc(-c2nc3cc(Cl)c(Cl)cc3[nH]2)cc1 | 160 to 163 °C
49 | CC1CC(C)(CO)CN1c1ccc(C#N)c2ccccc12 (configuration not stated) | 100 to 101 °C
50 | CCOc1ncc(C(C)=O)cc1C(=O)OC | 111 to 112 °C
51 | CC(=O)ON1C(C)(C)NC(=O)C1(C)C | 188 to 190 °C
52 | N#CC1C(=O)NC(=O)C(C(=O)O)C12CCCCC2 (configuration not stated) | 210 to 214 °C
53 | CCCC(CNc1nc(C)c(OC)c(C)n1)c1ccccc1 (configuration not stated) | 31 to 33 °C
54 | CNC(=O)C=Cc1ccc(C(=O)O)cc1 | 270 to 273 °C
55 | CN(C)CCOc1ccc2nc(C#N)nc(NC3CCCC3)c2c1 | 158 to 160 °C
56 | Nc1ccc(NC(=O)N(C[C@H]2CC[C@H](CN(C(=O)Nc3ccc(N)cc3)C3CCCCC3)CC2)C2CCCCC2)cc1 | 185 to 188 °C
57 | CC1(C)CC(N(C=O)CCc2ccccc2)CC(C)(C)N1 | 86 °C
58 | N#Cc1ccc(N2CCC(=O)CC2)nc1 | 171 to 173 °C
59 | O=C1NC(=O)c2c(-c3ccccc3[N+](=O)[O-])ccc(-c3ccccc3)c21 | 224 to 226 °C
60 | COc1cc(Nc2c(C#N)cnc3cc(C#CCCN(C)C)c(OC)cc23)c(Cl)cc1Cl | 177 to 179 °C

Results, then the compound that gave them:

Row | melting point | Compound
61 | 148 to 150 °C | COc1ccc(-c2cc(=Nc3c(C)cc(C)cc3C)n(C)c(=O)n2CC(=O)O)cc1OC
62 | 200 to 202 °C | Cc1ccccc1[C@H](O)CCc1c(C(=O)N(C)C)cc2c(nc(C)n2C)c1O
63 | 67 to 69 °C | CC(C)OC(=O)c1cc(-n2c(=O)n3n(c2=S)COCC3)c(F)cc1Cl
64 | 158 to 162 °C | FC(F)(F)c1ccc(-c2cc(Oc3ccc4cccnc4c3)nnc2Oc2ccc3cccnc3c2)cc1
65 | 136 to 138 °C | C#CCn1nc(-c2ccc(SC)cc2)c(-c2ccc(F)cc2)c1C(F)(F)F
66 | 86 to 88 °C | CCCC(=O)NCCc1cc(-c2cccc(C(=O)OC)c2)cc2ccc(OC)cc12
67 | 164 to 166 °C | CCOC(=O)C1=C(C)N(C(C)=O)C(c2csc(C)n2)=NC1C1(F)C=CC=CC1Cl (configuration not stated)
68 | 112 °C | CCC1CC(=O)N(CCc2ccc(N)cc2)N=C1c1ccc(OC)c(OC)c1 (configuration not stated)
69 | 163 °C | COc1ccc(S(=O)(=O)N(CC(N)=O)c2cc(Cl)c(Cl)cc2Cc2ccccc2Cl)cc1OC
70 | 142 °C | CCOC(=O)C1=C(N)N=C(N)C(C)(C(=O)OCC)C1c1cccc([N+](=O)[O-])c1 (configuration not stated)
71 | 159 to 162 °C | Cc1ccc(N2N=C3c4cc(OCCCN(C)C)ccc4CCC3CC2=O)cc1 (configuration not stated)
72 | 98 to 100 °C | Cn1c(C(F)(F)F)cc(=O)n(-c2c(F)cc(Br)c(O)c2N)c1=O
73 | 149 to 151 °C | COc1ccc2c(c1)cc(C(=O)c1ccc(C)cc1)n2C
74 | 190 °C | CCC(C(=O)c1ccc(Cl)cc1)n1ncn(-c2ccc(N3CCN(c4cnccn4)CC3)nc2)c1=O (single isomer, unassigned; (+))
75 | 147 to 151 °C | Cn1cc(-c2ccc(C(F)(F)F)cc2)c(=O)c(-c2cccc(Cl)c2)c1
76 | 199 to 201 °C | O=[N+]([O-])c1c(O)ccc2cc(-c3ccc(O)cc3)ccc12
77 | 132 to 133 °C | CC(C)(C)c1cc(C(O)COc2ccc(C(=O)O)c(O)c2)cc(C(C)(C)C)c1O (configuration not stated)
78 | 178 to 179 °C | CC(C)OC(=O)c1cc(NC(=O)c2c(Cl)c(Cl)c(Cl)c(Cl)c2C(=O)O)ccc1Cl
79 | 167 to 168 °C | CC(C)OC(=O)c1cc(N)c(F)c(F)n1

Row | melting point | Compound
80 | 152 °C | COCCCn1c(COc2ccccc2)nc2c(N)nc3ccccc3c21
81 | 174 to 175 °C | O=C(Nc1c(C(O)(C(F)(F)F)C(F)(F)F)ccc2ccccc12)c1ccc(Cl)c(Cl)c1
82 | 193 to 195 °C | CCOC(=O)c1ccn2c(C(=O)c3cccc(O)c3)c(-c3ccccc3)cc2c1
83 | 234 to 236 °C | CC(=O)Oc1ccc(-n2cc(C(=O)OC3CCc4ccccc43)c(=O)cc2-c2cc3ccccc3s2)cc1 (configuration not stated)
84 | 140 to 141 °C | COc1c(C)cnc(CS(=O)c2nc3ccccc3n2CCl)c1C (configuration not stated)
85 | 70 to 72 °C | CC(C)(C)c1cc(CCc2ccccc2NC(=O)N2CCN(Cc3ccccc3)CC2)cc(C(C)(C)C)c1O
86 | 175 to 176 °C | CC(=O)c1ccc(Nc2cccc(-c3cccnc3)c2)c(N)c1
87 | 59 to 63 °C | CC1(C)OC(=O)c2ccc(CO)cc21
88 | 232 to 233 °C | COC(=O)c1cccc2nc(N)sc12
89 | 182 to 184 °C | C#CCn1c(CC)nc2c(N)nc3ccccc3c21
90 | 236 to 240 °C | COc1cccc(OC)c1C(=O)Nc1ccc(C(=O)O)cc1
91 | 173 to 176 °C | CCc1[nH]n(C2CCCC2)c2nc(-c3cccc(OCCN4CCOCC4)c3)nc(=O)c1-2
92 | > 250 °C | CC(=O)C1=NN(c2ccc(C(=O)O)c(Cl)c2)C(=O)C1
93 | > 230 °C | O=C(O)Cn1c(=O)c(=O)[nH]c2cc([N+](=O)[O-])c(-n3ccc(CN4CCN(Cc5ccccc5)CC4)c3)cc21
94 | 190 to 192 °C | CCOC(=O)c1ncn(-c2cc(C(=O)OC)c([N+](=O)[O-])cc2C(F)(F)F)n1
95 | 146 to 147 °C | COC(=O)c1ccc2c(nnn2C)c1C(=O)OC
96 | 188 to 190 °C | CSCc1cc(O)cc2cc(-c3ccc(O)cc3)oc12
97 | 124 to 127 °C | CN1CC(CO)C2c3cccc4c3c(cn4S(=O)(=O)c3ccccc3)CC21 (configuration not stated)
